Measurements: patent publication US20250019376A1, “CHROMANE AMIDINE MONOBACTAM ANTIBIOTICS” (priority 2021, published 2025)

What was measured:
Settings in all cases: lowest concentration inhibiting 95% of growth (OD600); with BLi relebactam 4 μg/mL; 22 hours, 35±2° C.
[1] = system: Acinetobacter baumannii expressing TEM-1, AmpC, and Oxa-24/40 (CL6188); assay type: cell-based
Method: (§1) The concentrations of compounds required to inhibit the growth of various strains of bacteria were determined in an assay that assessed bacterial growth by measuring optical density at 600 nm (OD600). The bacterial strains tested included the clinical strains Escherichia co/i expressing NDM-1 (CLB30016), Klebsiella pneumoniae expressing KPC-1 (CL6569), Acinetobacter baumannii expressing TEM-1, AmpC, and Oxa-24/40 (CL6188) and Pseudomonas aeruginosa expressing AmpC (CL5701). All compounds were tested in the presence of a f3 lactamase inhibitor (BLi, Relebactam) in 384-well microplates.
(§2) The clinical strains were stored as frozen single use stocks, thawed and diluted into 1.1× cation-adjusted Mueller-Hinton 11 broth to achieve approximately 2×10^5 CFU/mL. Test compounds were dissolved in DMSO and diluted 1:50 in the assay, resulting in a final concentration range of 100 μM to 0.098 μM. On the day of the assay, 1 μL of test compound was added to the plate followed by 4 μL of 50 μg/mL BLi in MOPS buffer and 45 μL of diluted bacteria. Plates were centrifuged at 1000 rpm for 30 seconds, shaken at approximately 800 rpm for 1 minute, and incubated at 35±2° C. for 22 hours. The concentration of BLi used in the assay was 4 μg/mL. At the end of the incubation, absorbance at 600 nm was determined using a spectrophotometer. Inhibition was quantitated by identifying the lowest concentration of test compound that was required to inhibit […] of the growth of the bacteria.

[2] = system: Escherichia co/i expressing NDM-1 (CLB30016); assay: Growth inhibitory concentration (OD600), E. coli CLB30016; assay type: cell-based, Escherichia coli
Method: as §1, §2

[3] = system: Klebsiella pneumoniae expressing KPC-1 (CL6569); assay: Growth inhibitory concentration (OD600), K. pneumoniae CL6569; assay type: cell-based
Method: as §1, §2

[4] = system: Pseudomonas aeruginosa expressing AmpC (CL5701); assay: Growth inhibitory concentration (OD600), P. aeruginosa CL5701; assay type: cell-based
Method: as §1, §2

Row | Compound | AB_CL6188 MITC95 [1] [µM] | EC_CLB30016 MITC95 [2] [µM] | KP_CL6569 MITC95 [3] [µM] | PA_CL5701 MITC95 [4] [µM]
1 | CC1(C)[C@H](NC(=O)/C(=N\O[C@](C)(C(=O)O)[C@H]2CCc3cc(C(=N)N[C@H]4C[C@](CN)(CO)C4)ccc3O2)c2csc(N)n2)C(=O)N1OS(=O)(=O)O [Compound 78, (S)-2-((R)-6-(N-((1r,3R)-3-(aminomethyl)-3-(hydroxymethyl)cyclobutyl)carbamimidoyl)chroman-2-yl)-2-((((Z)-1-(2-aminothiazol-4-yl)-2-(((S)-2,2-dimethyl-4-oxo-1-(sulfooxy)azetidin-3-yl)amino)-2-oxoethylidene)amino)oxy)propanoic acid] | 4.688 | 6.25 | 0.3906 | 1.563
2 | CC1(C)[C@H](NC(=O)/C(=N\O[C@](C)(C(=O)O)[C@H]2CCc3cc(C(=N)N[C@H]4C[C@]5(CCNC5)C4)ccc3O2)c2csc(N)n2)C(=O)N1OS(=O)(=O)O [Compound 22, (S)-2-((R)-6-(N-((2r,4S)-6-azaspiro[3.4]octan-2-yl)carbamimidoyl)chroman-2-yl)-2-((((Z)-1-(2-aminothiazol-4-yl)-2-(((S)-2,2-dimethyl-4-oxo-1-(sulfooxy)azetidin-3-yl)amino)-2-oxoethylidene)amino)oxy)propanoic acid] | 3.125 | 3.125 | 0.3906 | 1.563
3 | COCC[C@]1(N)CC[C@@H](NC(=N)c2ccc3c(c2)CC[C@H]([C@](C)(O/N=C(\C(=O)N[C@@H]2C(=O)N(OS(=O)(=O)O)C2(C)C)c2csc(N)n2)C(=O)O)O3)CC1 [Compound 63, (S)-2-((R)-6-(N-((1s,4S)-4-amino-4-(2-methoxyethyl)cyclohexyl)carbamimidoyl)chroman-2-yl)-2-((((Z)-1-(2-aminothiazol-4-yl)-2-(((S)-2,2-dimethyl-4-oxo-1-(sulfooxy)azetidin-3-yl)amino)-2-oxoethylidene)amino)oxy)propanoic acid] | 6.25 | 12.5 | 0.7813 | 3.125
4 | CC1(C)[C@H](NC(=O)/C(=N\O[C@](C)(C(=O)O)[C@H]2CCc3cc(C(=N)N[C@H]4CC[C@H](N)CC4)ccc3O2)c2csc(N)n2)C(=O)N1OS(=O)(=O)O [Compound 32, (S)-2-((R)-6-(N-((1r,4R)-4-aminocyclohexyl)carbamimidoyl)chroman-2-yl)-2-((((Z)-1-(2-aminothiazol-4-yl)-2-(((S)-2,2-dimethyl-4-oxo-1-(sulfooxy)azetidin-3-yl)amino)-2-oxoethylidene)amino)oxy)propanoic acid] | 3.125 | 3.125 | 0.3906 | 1.563
5 | CC1(C)[C@H](NC(=O)/C(=N\O[C@](C)(C(=O)O)[C@H]2CCc3cc(C(=N)NC4CCC(N)(CO)CC4)ccc3O2)c2csc(N)n2)C(=O)N1OS(=O)(=O)O (stereo partly drawn) [Compound 69, (S)-2-((R)-6-(N-((1r,4R)-4-amino-4-(hydroxymethyl)cyclohexyl)carbamimidoyl)chroman-2-yl)-2-((((Z)-1-(2-aminothiazol-4-yl)-2-(((S)-2,2-dimethyl-4-oxo-1-(sulfooxy)azetidin-3-yl)amino)-2-oxoethylidene)amino)oxy)propanoic acid] | 4.688 | 6.25 | 0.3906 | 1.563
6 | CC1(C)[C@H](NC(=O)/C(=N\O[C@](C)(C(=O)O)[C@H]2CCc3cc(C(=N)N[C@]4(C)CC[C@@H](N)CC4)ccc3O2)c2csc(N)n2)C(=O)N1OS(=O)(=O)O [Compound 71, (S)-2-((R)-6-(N-((1r,4R)-4-amino-1-methylcyclohexyl)carbamimidoyl)chroman-2-yl)-2-((((Z)-1-(2-aminothiazol-4-yl)-2-(((S)-2,2-dimethyl-4-oxo-1-(sulfooxy)azetidin-3-yl)amino)-2-oxoethylidene)amino)oxy)propanoic acid] | 4.688 | 9.375 | 0.7813 | 1.563
7 | CC1(C)[C@H](NC(=O)/C(=N\O[C@](C)(C(=O)O)[C@H]2CCc3cc(C(=N)N[C@H]4CC[C@](O)(CN)CC4)ccc3O2)c2csc(N)n2)C(=O)N1OS(=O)(=O)O [Compound 59, (S)-2-((R)-6-(N-((1s,4S)-4-(aminomethyl)-4-hydroxycyclohexyl)carbamimidoyl)chroman-2-yl)-2-((((Z)-1-(2-aminothiazol-4-yl)-2-(((S)-2,2-dimethyl-4-oxo-1-(sulfooxy)azetidin-3-yl)amino)-2-oxoethylidene)amino)oxy)propanoic acid] | 3.125 | 12.5 | 0.3906 | 1.563
8 | CC1(C)[C@H](NC(=O)/C(=N\O[C@](C)(C(=O)O)[C@H]2CCc3cc(C(=N)N[C@H]4C[C@@](N)(CCO)C4)ccc3O2)c2csc(N)n2)C(=O)N1OS(=O)(=O)O [Compound 87, (S)-2-((R)-6-(N-((1r,3R)-3-amino-3-(2-hydroxyethyl)cyclobutyl)carbamimidoyl)chroman-2-yl)-2-((((Z)-1-(2-aminothiazol-4-yl)-2-(((S)-2,2-dimethyl-4-oxo-1-(sulfooxy)azetidin-3-yl)amino)-2-oxoethylidene)amino)oxy)propanoic acid] | 4.688 | 6.25 | 0.3906 | 1.563
9 | CC1(C)[C@H](NC(=O)/C(=N\O[C@](C)(C(=O)O)[C@H]2CCc3cc(C(=N)N[C@H]4C[C@](N)(CCO)C4)ccc3O2)c2csc(N)n2)C(=O)N1OS(=O)(=O)O [Compound 86, (S)-2-((R)-6-(N-((1s,3S)-3-amino-3-(2-hydroxyethyl)cyclobutyl)carbamimidoyl)chroman-2-yl)-2-((((Z)-1-(2-aminothiazol-4-yl)-2-(((S)-2,2-dimethyl-4-oxo-1-(sulfooxy)azetidin-3-yl)amino)-2-oxoethylidene)amino)oxy)propanoic acid] | 6.25 | 6.25 | 0.3906 | 1.563
10 | CC1(C)[C@H](NC(=O)/C(=N\O[C@](C)(C(=O)O)[C@H]2CCc3cc(C(=N)N[C@H]4C[C@](N)(C(O)CO)C4)ccc3O2)c2csc(N)n2)C(=O)N1OS(=O)(=O)O (stereo partly drawn) [Compound 100, (S)-2-((R)-6-(N-((1S,3S)-3-amino-3-((R)-1,2-dihydroxyethyl)cyclobutyl)carbamimidoyl)chroman-2-yl)-2-((((Z)-1-(2-aminothiazol-4-yl)-2-(((S)-2,2-dimethyl-4-oxo-1-(sulfooxy)azetidin-3-yl)amino)-2-oxoethylidene)amino)-oxy)propanoic acid] | 6.25 | 6.25 | 0.7813 | 1.563
11 | CC1(C)[C@H](NC(=O)/C(=N\O[C@](C)(C(=O)O)[C@H]2CCc3cc(C(=N)N[C@H]4C[C@@](N)(C(O)CO)C4)ccc3O2)c2csc(N)n2)C(=O)N1OS(=O)(=O)O (stereo partly drawn) [Compound 99, (S)-2-((R)-6-(N-((1R,3R)-3-amino-3-((R)-1,2-dihydroxyethyl)cyclobutyl)carbamimidoyl)chroman-2-yl)-2-((((Z)-1-(2-aminothiazol-4-yl)-2-(((S)-2,2-dimethyl-4-oxo-1-(sulfooxy)azetidin-3-yl)amino)-2-oxoethylidene)amino)oxy)propanoic acid] | 12.5 | 6.25 | 0.7813 | 3.125
